Assay [1] addresses PKR R532W (Homo sapiens, UniProt P30613, R532W). Kind of assay: PKR Mutant Assay, dose response (AC50), PKR R532W. Type of assay: biochemical. Particulars: PKR R532W mutant enzyme. How it is done: (§1) • PKR or PKR mutant enzyme solution was diluted in assay buffer. • 2 μL of test compound was added into wells first, and then 180 μL reaction mix was added. • Reactions mixture with test compound was assembled except for ADP, and plates were stored for 60 minutes at room temperature. • 20 uL ADP was added to start reaction at room temperature and reaction progress was measured as changes in absorbance at 340 nm wavelength at room temperature.
(§2) Test Compound Preparation: • Test compound stock was made at 100× concentration in 100% DMSO (10 mM) • 1 to 3 dilutions were made for 11 points (i.e. 50 μl of first concentration added to 100 μl 100% DMSO to yield 3.33 mM, 50 μl of this added to 100 μl DMSO to yield 1.11 mM, and so forth) • 1 to 100 dilution into assay (2 μl in 200 μl) yielded starting concentration of 100 μM, decreasing 3 fold for 11 points.

Assay [2] has as its target PKR R510Q (Homo sapiens, UniProt P30613, R510Q). Kind of assay: PKR Mutant Assay, dose response (AC50), PKR R510Q. It is filed as biochemical. The settings on record: PKR R510Q mutant enzyme. On the procedure:
as §1, §2

Assay [3] deals with T1, wt PKR (Homo sapiens, UniProt P30613). Kind of assay: PKR Mutant Assay, dose response (AC50), wild type PKR enzyme. It is filed as biochemical. On the procedure:
as §1, §2

For assay [4], the target named is T1, wt PKR. Kind of assay: wt PKR cell based assay.

Structures are written as SMILES.

PKR R510Q, sequence (P30613 whole entry R510Q): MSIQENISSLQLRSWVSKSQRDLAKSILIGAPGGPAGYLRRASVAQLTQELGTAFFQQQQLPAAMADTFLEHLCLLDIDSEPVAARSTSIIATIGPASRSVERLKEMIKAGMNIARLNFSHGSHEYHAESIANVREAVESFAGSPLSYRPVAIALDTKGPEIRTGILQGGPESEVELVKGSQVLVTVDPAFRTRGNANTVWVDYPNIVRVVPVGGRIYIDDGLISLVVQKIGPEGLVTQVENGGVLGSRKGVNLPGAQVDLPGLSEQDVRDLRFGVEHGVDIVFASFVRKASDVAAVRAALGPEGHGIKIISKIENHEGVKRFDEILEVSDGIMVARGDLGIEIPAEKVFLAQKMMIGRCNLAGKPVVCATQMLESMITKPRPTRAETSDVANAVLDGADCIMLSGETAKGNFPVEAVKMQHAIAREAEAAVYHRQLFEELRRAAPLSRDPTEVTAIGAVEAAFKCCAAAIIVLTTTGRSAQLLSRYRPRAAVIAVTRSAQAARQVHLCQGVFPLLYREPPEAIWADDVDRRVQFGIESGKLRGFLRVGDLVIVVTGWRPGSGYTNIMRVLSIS
T1 sequence (P30613 whole entry): as the sequence (P30613 whole entry R510Q) above, with Q510R counted along it
PKR R532W, sequence (P30613 whole entry R532W): as the sequence (P30613 whole entry R510Q) above, with Q510R, R532W counted along it

Usually AC50 stands for the concentration giving half of the maximal activity seen. Low readings indicate activity at low concentration, high ones activity only at high concentration. Consider `Cc1ccccc1CC1(O)CCN(C(=O)c2ccc(NS(=O)(=O)c3cccc4scnc34)cc2)CC1` [Compound 125], for which the AC50 in assay [1] was less than 100 nM; in assay [2], less than 0.1 µM; in assay [3] (wild type PKR enzyme), less than 100 nM; in assay [4], less than 100 nM.
As to `Cc1cc(C2(O)CCN(C(=O)c3ccc(NS(=O)(=O)c4cccc5scnc45)cc3)CC2)sn1` [Compound 528, N-(4-(4-hydroxy-4-(3-methylisothiazol-5-yl)piperidine-1-carbonyl)phenyl)benzo[d]thiazole-4-sulfonamide], the AC50 in assay [3] (wild type PKR, enzymatic assay) was less than 100 nM; in assay [4] (wild type PKR) it was 101 to 1000 nM.
With `Cn1ccc(C2(O)CCN(C(=O)c3ccc(NS(=O)(=O)c4cccc5scnc45)cc3)CC2)n1` [Compound 450], the AC50 in assay [1] was greater than 10000 nM; in assay [2], greater than 10 µM; in assay [3] (wild type PKR enzyme), greater than 10000 nM.
As for `CC(F)(F)CCC1(O)CCN(C(=O)c2ccc(NS(=O)(=O)c3cccc4nc(N)cnc34)cc2)CC1` [Compound 486, 2-amino-N-(4-(4-(3,3-difluorobutyl)-4-hydroxypiperidine-1-carbonyl)phenyl)quinoxaline-5-sulfonamide], the half-maximal activity concentration (AC50) in assay [1] was less than 100 nM; in assay [2], 0.101 to 1 µM; in assay [3] (wild type PKR enzyme) it was less than 100 nM; in assay [4] it was less than 100 nM.
For `Nc1nc(CC2(O)CCN(C(=O)c3ccc(NS(=O)(=O)c4cccc5scnc45)cc3)CC2)cs1` [Compound 485], the figures for the AC50 in assay [1], in assay [2] and in assay [3] (wild type PKR enzyme) were 1010 to 10000 nM, greater than 10 µM and 1010 to 10000 nM, respectively.
For `CCn1cc(CC2(O)CCN(C(=O)c3ccc(NS(=O)(=O)c4cccc5nccnc45)cc3)CC2)cn1` [Compound 503], the AC50 in assay [1] was 101 to 1000 nM; in assay [2] it was greater than 10 µM; in assay [3] (wild type PKR enzyme), 101 to 1000 nM.
For the compound `CS(=O)(=O)CC1(O)CCN(C(=O)c2ccc(NS(=O)(=O)c3cccc4scnc34)cc2)CC1` [Compound 472], the AC50 in assay [1] was 101 to 1000 nM; in assay [2], 1.01 to 10 µM; in assay [3] (wild type PKR enzyme) it was 101 to 1000 nM.
Regarding `O=C(c1ccc(NS(=O)(=O)c2cccc3scnc23)cc1)N1CCC(O)(c2nc(Cl)cs2)CC1` [Compound 481], the AC50 in assay [1] lay in the range of 101 to 1000 nM; in assay [2], 1.01 to 10 µM; in assay [3] (wild type PKR enzyme) it was 1010 to 10000 nM.
In the case of `CC(C)CC1(N)CCN(C(=O)c2ccc(NS(=O)(=O)c3cccc4scnc34)cc2)CC1` [Compound 529], the AC50 in assay [1] lay in the range of 101 to 1000 nM; in assay [2], 0.101 to 1 µM.
Turning to `CS(=O)(=O)CCC1(O)CCN(C(=O)c2ccc(NS(=O)(=O)c3cccc4scnc34)cc2)CC1` [Compound 466], the AC50 in assay [1] was greater than 10000 nM; in assay [2], greater than 10 µM; in assay [3] (wild type PKR enzyme), 1010 to 10000 nM.
As to `CCS(=O)(=O)CC1(O)CCN(C(=O)c2ccc(NS(=O)(=O)c3cccc4scnc34)cc2)CC1` [Compound 484], the results for the AC50 in assay [1], in assay [2] and in assay [3] (wild type PKR enzyme) were 1010 to 10000 nM, greater than 10 µM and 1010 to 10000 nM, respectively.
In the case of `Cn1ccc(CC2(O)CCN(C(=O)c3ccc(NS(=O)(=O)c4cccc5nccnc45)cc3)CC2)n1` [Compound 507], the AC50 in assay [1] is 101 to 1000 nM; in assay [2], greater than 10 µM; in assay [3] (wild type PKR enzyme), 101 to 1000 nM.
For the compound `CC(C)CC1(O)CCN(C(=O)c2ccc(NS(=O)(=O)c3cccc4ncc(O)nc34)cc2)CC1` [Compound 460], the AC50 in assay [1] is greater than 10000 nM; in assay [2], greater than 10 µM; in assay [3] (wild type PKR enzyme) it was greater than 10000 nM.
Regarding `O=C(c1ccc(NS(=O)(=O)c2cccc3scnc23)cc1)N1CCC(O)(Cc2nc(Cl)cs2)CC1` [Compound 489, N-(4-(4-((4-chlorothiazol-2-yl)methyl)-4-hydroxypiperidine-1-carbonyl)phenyl)benzo[d]thiazole-4-sulfonamide], the AC50 in assay [3] (wild type PKR enzyme) was less than 100 nM; in assay [4], 101 to 1000 nM.
With `O=C(c1ccc(NS(=O)(=O)c2cccc3scnc23)cc1)N1CCC(O)(c2ncc(Cl)s2)CC1` [Compound 509], the AC50 was 101 to 1000 nM in assay [1], greater than 10 µM in assay [2] and 1010 to 10000 nM in assay [3] (wild type PKR enzyme).
For the compound `CC(F)(F)CCC1(O)CCN(C(=O)c2ccc(NS(=O)(=O)c3cccc4scnc34)cc2C#N)CC1` [Compound 477, N-(3-cyano-4-(4-(3,3-difluorobutyl)-4-hydroxypiperidine-1-carbonyl)phenyl)benzo[d]thiazole-4-sulfonamide], the AC50 in assay [1] was 101 to 1000 nM; in assay [2], 1.01 to 10 µM; in assay [3] (wild type PKR enzyme), 101 to 1000 nM.
Regarding `CC(C)CC1(O)CCN(C(=O)c2ccc(NS(=O)(=O)c3cccc4[nH]cnc34)cc2)CC1` [Compound 449], the results for the AC50 in assay [1], in assay [2] and in assay [3] (wild type PKR enzyme) were greater than 10000 nM, greater than 10 µM and greater than 10000 nM, respectively.
Turning to `CC(C)CC1(OP(=O)(O)O)CCN(C(=O)c2ccc(NS(=O)(=O)c3cccc4scnc34)cc2)CC1` [Compound 524], the values for the AC50 in assay [1], in assay [3] (wild type PKR enzyme) and in assay [4] were greater than 10000 nM, greater than 10000 nM and 1010 to 10000 nM, respectively.
In the case of `CCS(=O)(=O)CC1(O)CCN(C(=O)c2ccc(NS(=O)(=O)c3cccc4nccnc34)cc2)CC1` [Compound 490], the AC50 in assay [1] was 1010 to 10000 nM; in assay [2], greater than 10 µM; in assay [3] (wild type PKR enzyme) it was 1010 to 10000 nM.
Consider `CC(C)(O)CCCC1(O)CCN(C(=O)c2ccc(NS(=O)(=O)c3cccc4nccnc34)cc2)CC1` [Compound 475], for which the AC50 in assay [1] and in assay [3] (wild type PKR enzyme) was greater than 10000 nM throughout.
As for `CC1(O)CCC(C2(O)CCN(C(=O)c3ccc(NS(=O)(=O)c4cccc5scnc45)cc3)CC2)CC1` (centres unmarked) [Compound 504], the values for the AC50 in assay [1], in assay [2] and in assay [3] (wild type PKR enzyme) were 1010 to 10000 nM, 1.01 to 10 µM and 101 to 1000 nM, respectively.
Regarding `O=C(c1ccc(NS(=O)(=O)c2cccc3nccnc23)cc1)N1CCC(O)(c2ccns2)CC1` [Compound 517], the AC50 in assay [2] was 0.101 to 1 µM; in assay [4], 101 to 1000 nM.
Taken in the same sequence, the figures for `CC(C)CC1(OP(=O)(O)O)CCN(C(=O)c2ccc(NS(=O)(=O)c3cccc4nccnc34)cc2)CC1` [Compound 525] were greater than 10 µM and 101 to 1000 nM.
As for `CC(C)CC1(O)CCN(C(=O)c2ccc(NS(=O)(=O)c3cnc(O)c4cccnc34)cc2)CC1` [Compound 416], the AC50 in assay [2] is greater than 10 µM.
`O=C(c1ccc(NS(=O)(=O)c2cccc3nccnc23)cc1)N1CCC(O)(Cc2nc(Cl)cs2)CC1` [Compound 494] came in with an AC50 in assay [2] of 0.101 to 1 µM.
`CC1(O)CCC(C2(O)CCN(C(=O)c3ccc(NS(=O)(=O)c4cccc5nccnc45)cc3)CC2)CC1` (centres unmarked) [Compound 505]: the AC50 in assay [1] lay in the range of 101 to 1000 nM; in assay [2], 0.101 to 1 µM; in assay [3] (wild type PKR enzyme), 101 to 1000 nM.
In the case of `O=C(c1ccc(NS(=O)(=O)c2cccc3nccnc23)cc1)N1CCC(O)(c2sncc2Cl)CC1` [Compound 516, N-(4-(4-(4-chloroisothiazol-5-yl)-4-hydroxypiperidine-1-carbonyl)phenyl)quinoxaline-5-sulfonamide], the AC50 in assay [2] is 0.101 to 1 µM; in assay [4] it was less than 100 nM.
With `O=C1NCCC1CC1(O)CCN(C(=O)c2ccc(NS(=O)(=O)c3cccc4scnc34)cc2)CC1` (centres unmarked) [Compound 495], the AC50 in assay [1] was 1010 to 10000 nM; in assay [2] it was greater than 10 µM; in assay [3] (wild type PKR enzyme) it was 1010 to 10000 nM.
As for `CC(C)(O)CCCC1(O)CCN(C(=O)c2ccc(NS(=O)(=O)c3cccc4scnc34)cc2)CC1` [Compound 476], the AC50 in assay [1] and in assay [3] (wild type PKR enzyme) was 1010 to 10000 nM in each case.
Compound `CC(C)CC1(O)CCN(C(=O)c2ccc(NS(=O)(=O)c3cccc4cncnc34)cc2)CC1` [Compound 441] registered an AC50 in assay [3] (wild type PKR enzyme) of 101 to 1000 nM.
`CN1CCC(C2(CO)CCN(C(=O)c3ccc(NS(=O)(=O)c4cccc5scnc45)cc3)CC2)C1=O` (centres unmarked) [Compound 487]: the AC50 lay in the range of 1010 to 10000 nM in assay [1], 1.01 to 10 µM in assay [2] and 1010 to 10000 nM in assay [3] (wild type PKR enzyme).
Turning to `CN1CCC(CC2(O)CCN(C(=O)c3ccc(NS(=O)(=O)c4cccc5scnc45)cc3)CC2)C1=O` (centres unmarked) [Compound 488], the AC50 in assay [1] was 101 to 1000 nM; in assay [2], greater than 10 µM; in assay [3] (wild type PKR enzyme) it was 1010 to 10000 nM.
The matching figures for `O=C1NCCC1CC1(O)CCN(C(=O)c2ccc(NS(=O)(=O)c3cccc4nccnc34)cc2)CC1` (centres unmarked) [Compound 496]: 1010 to 10000 nM, greater than 10 µM and 1010 to 10000 nM.
The matching figures for `CS(=O)(=O)CC1(O)CCN(C(=O)c2ccc(NS(=O)(=O)c3cccc4nccnc34)cc2)CC1` [Compound 474]: 101 to 1000 nM, 1.01 to 10 µM and 101 to 1000 nM.
Taken in the same sequence, the figures for `CS(=O)(=O)CCC1(O)CCN(C(=O)c2ccc(NS(=O)(=O)c3cccc4nccnc34)cc2)CC1` [Compound 470] were 1010 to 10000 nM, greater than 10 µM and 1010 to 10000 nM.
Consider `O=C(c1ccc(NS(=O)(=O)c2cccc3scnc23)cc1)N1CCC(O)(c2ccns2)CC1` [Compound 515, N-(4-(4-hydroxy-4-(isothiazol-5-yl)piperidine-1-carbonyl)phenyl)benzo[d]thiazole-4-sulfonamide], for which the AC50 in assay [2] is 0.101 to 1 µM; in assay [4] it was 101 to 1000 nM.
Take `CCn1cc(CC2(O)CCN(C(=O)c3ccc(NS(=O)(=O)c4cccc5scnc45)cc3)CC2)cn1` [Compound 506]: the values for the AC50 in assay [1], in assay [2] and in assay [3] (wild type PKR enzyme) were 1010 to 10000 nM, greater than 10 µM and 1010 to 10000 nM, respectively.

Source of the values: patent publication US20160046579A1, “THERAPEUTIC COMPOUNDS AND COMPOSITIONS” (AGIOS PHARMACEUTICALS, INC., priority 2013, published 2016).
